One data set deals with COLO 205. Nature of the data set: Determination of cell growth curve (cell counting). It counts as cell-based, human. As to the method:
The effect of TB on the growth of various human cancer cells […]. In FIG. 1, (A) COLO205, (B) HT29, (C) HepG2, (D) Hep3B, (E) HL60, and (F) normal human fibroblast cells were treated with various concentrations of TB (30 to 120 μM). Media with or without TB were renewed daily until cell counting. Three samples were analyzed in each group. Values represent mean±S.E. The cells were cultured for 5 days with or without TB (30-120 μM), and then the cells were harvested and counted. […] The COLO 205 cells were released from quiescence by incubation in culture media supplemented with 10% FCS and 0.05% DMSO without or with 90 μM TB for 24 h. After 24 h treatment with TB, the cells were washed twice with PBS, replaced with fresh 10% FCS without DMSO or TB. […] The cultured cell numbers in DMSO- and TB-treated group were counted every day. Three samples were analyzed in each group, and values represent the mean±S.E. Human colon cancer, hepatoma, leukemia, and human normal fibroblast cells at a density of 1×10^4 were plated in 35-mm Petri dishes. TB was added at the indicated doses in 0.05% dimethyl-sulfoxide (DMSO). For control specimens, the same volume of the 0.05% DMSO without TB was added. Media with and without TB were changed daily until cell counting

The next data set concerns COLO 205 tumor tissues. Nature of the data set: DNA fragmentation analysis / TdT nick end labeling in tumor tissues. It counts as in vivo, nude mouse. As to conditions: tumor from TB-treated mouse, 6 weeks.
A further data set relates to Hep G2 cells. Put plainly: Flow cytometry (FACS) cell cycle analysis. The conditions noted are these: various concentrations of TB, 15 h after release from quiescence; dose-dependent. It counts as cell-based, human.
The subject of data set [1] is p53 and p21/Cip1 protein in COLO 205 tumor. Put plainly: Western blot of COLO 205 tumor. It counts as in vivo, nude mouse. The conditions noted are these: tumor isolated at 6 weeks after TB treatment. (Immunoblotting shows a protein as a band on a membrane.)
Method: Western blot analyses show the levels of p53 and p21/Cip1 protein in COLO 205 tumor (C). COLO 205 tumors were isolated for protein extraction at 6 weeks after DMSO or TB treatment. Membranes were also probed with anti-GAPDH antibody to correct for differences in protein loading. […] Western blot analysis was performed as previously described (Chen R J, et. al., Toxicology & Applied Pharmacology 2000;169(2):132-41; Lee W S, et. al., Circulation Research 1998;82(8):845-51.). Immunodetection was carried by probing with proper dilutions of specific antibodies at room temperature for 2 h. Anti-p21/Cip1, anti-p27/Kip1, anti-p53, anti-GAPDH monoclonal antibodies (Santa Cruz, Inc. CA); anti-cyclin B1, D1, and D3, anti-cdk2 and cdk4, and PCNA monclonal antibodies (Transduction Laboratories, Lexington, Ky.) were used at a concentration of 1:1,000 dilution. Anti-cyclin A and E polyclonal antibodies (Transduction, San Diego, Calif.) were used at a concentration of 1:250 dilution. […] In each experiment, membranes were also probed with anti-GAPDH antibody to correct for differences in protein loading.
Data set [2] deals with cdk4 kinase activity in HT 29 cells. Put plainly: Immunoprecipitation and kinase activity assay. It counts as cell-based, human. As to conditions: 60 μM TB, 15 h; p53 His273 mutant. The procedure: (§1) (Ko U, and […]. Genes & Development 1996; 10(9): 1054-72; Levine AJ., Cell 1997;88(3):323-31.). […] To further test this hypothesis, we examined the TB effects on the levels of p21/Cip1, p27/Kip1 and p53 protein, and the cdk4 kinase activity in three human cancer cell lines (COLO 205, HT 29 and Hep 3B). […] Antisense or sense p53 was added to COLO 205 at a final concentration of 20 μM at 16 h before the cell was challenged with 10% FCS and 60 μM TB treatment for additional 15 h. […] As previously described (Wu X, et. al., Oncogene 1996;12(7):1397-403.), the TB-treated cells were lysed in Rb lysis buffer, and immunoprecipitated with anti-cdk4 antibody (2 μg). The protein complexes in beads were washed twice with Rb lysis buffer and then once with Rb kinase assay buffer. The level of phosphorylated of Rb (for pRb), histone Hi (for cdk2) and glutathione s-transferase-Rb fusion protein (for cdk4) were measured by incubating the beads with 40 μl of hot Rb kinase solution [0.25 μl (2 μg) of Rb-GST fusion protein, 0.5 μl of (γ-^32P) ATP, 0.5 μl of 0.1 mM ATP and 38.75 μl of Rb kinase buffer] at 37° C. for 30 min, and then stopped by boiling the samples in SDS sample buffer for 5 min. The samples were analyzed by 12% SDS-PAGE, and the gel was then dried and subjected to autoradiography.

Data set [3] has as its system cdk4 kinase activity in Hep 3B cells. Put plainly: Immunoprecipitation and kinase activity assay. It counts as cell-based, human. As to conditions: 60 μM TB, 15 h; p53 partial deletion. The procedure:
as §1

Data set [4] has as its system cdk4 kinase activity in COLO 205 cells. Nature of the data set: Immunoprecipitation and kinase activity assay. The conditions noted are these: 60 μM TB, 15 h after release from quiescence; p53 wild type. It counts as cell-based, human. The procedure:
as §1

For data set [5] the following is noted: cited from earlier work.
The subject of data set [6] is p53 binding to p21/Cip1 promoter DNA, nuclear extracts of COLO 205 cells. Put plainly: Electrophoretic mobility shift assay (EMSA). It counts as cell-based, human. As to conditions: 60 μM TB.
Method: Antisense or sense p53 was added to COLO 205 at a final concentration of 20 μM at 16 h before the cell was challenged with 10% FCS and 60 μM TB treatment for additional 15 h. […] The radio labeled DNA (4 ng, 100,000 cpm) was incubated with nuclear extract in 15 μl of binding buffer (10 mM Tris-HCl, pH 8.0, 1 mM EDTA, 10% glycerol, 200 mM NaCl, and 1 μg probe DNA) on ice for 5 min. The samples were electrophoresed in a 5% polyacrylamide gel, dried on Whatman 3M paper, and then exposed to Fuji x-ray films at -70° C.

`CN(C/C=C/C#CC(C)(C)C)Cc1cccc2ccccc12` [TB, 1-Naphthalenemethanamine, N-(6,6-dimethyl-2-hepten-4-ynyl)-N-methyl-, (E)-]: the “duration of inhibition of cell proliferation after removal of TB” value in the data set on COLO 205 (90 μM TB for 24 h, then removed) was “at least 7 days”. In addition, the “reversibility of TB-induced inhibition of cell proliferation” value in the data set with COLO 205 (90 μM TB for 24 h, then washed and replaced with fresh 10% FCS) was “not reversed by removal of TB”. Further, in the data set with COLO 205 (TB 30-120 μM, 5 days, media renewed daily, dose-dependent), the cell number result is “decreased cell number”. Besides, in the data set on COLO 205 (TB concentration increased to 60 μM, 5 days), the “cell growth at TB 60 μM” value is “cell growth arrest or cell death”. For the same compound, the “apoptosis in COLO 205 tumor (nick end labeling, DNA fragmentation)” value in the data set with COLO 205 tumor tissues is listed as “Induction of apoptosis”. The “G0/G1 arrest, dose effect” value with Hep G2 cells was “induced G0/G1 arrest”. Besides, the “contents of p53 and p21/Cip1 in tumor” value in data set [1] is “increased”. Moreover, the “assayable cdk4 kinase activity” value in data set [2] is “slight decrease”; in data set [3] it was “slight decrease”; in data set [4], “strong decrease”. Also, the tissue accumulation entry in data set [5] (adipose tissues, keratin-rich tissues (dermis, epidermis, nail) and other organ tissues) was “extensively accumulates”. In addition, the “tissue concentrations relative to plasma” value in data set [5] (as early as 1 day after stop of medication) is given as “exceeded that of plasma”. Besides, in data set [6], the “binding between p53 protein and p53 consensus binding site in p21/Cip1 promoter DNA probe” value is given as “increased the binding”.

(Values after patent US20050032904A1, “Composition and use of allylamine derivatives” (priority 2003, published 2005).)
